The values below come from patent US20060193804A1, “Haircare use of cyclic amine derivatives” (L'OREAL, priority 2005, published 2006).

This assay relates to human striated muscle cells innervated with explants of rat embryonic spinal ganglia and spinal cord. Kind of assay: nerve/muscle coculture model: frequency of muscle fiber contractions. Format: cell-based. Particulars: for inhibition at 10 µM: Homo sapiens, concentration of 10^−5 M, contractions counted over 30 seconds after incubation for 60 seconds, read-out: inhibition of the frequency of contraction of the muscle fibers. As for the experimental part: Compounds 1 and 2 were tested at a given concentration, on a model of nerve/muscle coculture, which makes it possible to recreate a motor arc by innervating human striated muscle cells with explants of rat embryonic spinal ganglia and spinal cord.
This test is predictive of an inhibitory effect on muscle fiber contractions.
The protocol adopted is as follows:
Human myoblasts (primary culture of human muscle cells, M1b) were inoculated in 24-well plates. The culture medium is a mixture of ⅔ MEM (Invitrogen 21090-022), ⅓ M199 (Invitrogen 31153-026) and 5% FCS. At confluence, spinal cord explants from 13-day-old rat embryos are placed on the primary culture. The first contractions of the muscle fibers are observed after one week of coculture. After three weeks, these muscle fibers are striated and have mature differentiated neuromuscular junctions.
The products are tested in triplicate (3 fibers analysed) at two concentrations. For each culture well, a muscle fiber having regular contractions (>60 contractions per minute) is selected and the number of contractions is counted over 30 seconds. The test product is then added to the culture medium under a microscope without moving the microscope stage. After incubation for 60 seconds, the number of contractions is again counted over 30 seconds. The whole experiment is recorded using a digital camera. The videos are saved on an electronic medium.

One may read the inhibition as the share of the control response that was lost under treatment. For `c1ccc(CCCCN2CCC(c3ccccc3)CC2)cc1` [Compound 1], the “dose-response effect on contraction of the muscle fibers” value was “induces a dose-response effect” and the inhibition at 10 µM came to 50%.

As for `c1ccc(CCCC2CCN(CCCc3ccccc3)CC2)cc1` [Compound 2], the inhibition at 10 µM was about 55%.
